Results from PubChem BioAssay AID686998 (Broad Institute, 2013).
Results filed as inconclusive are left out. The source made the active and inactive calls.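 The calls were made as follows: active = falling signal with fitted half-maximal potency no higher than twice the top valid tested dose; inconclusive = poor fit quality, or flat fit spanning -70% to -30%; inactive = potency over limit, rising signal, or flat fit inside 30%.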

Test system: Cryptococcus neoformans growth, Alamar Blue, 24 h
Assay: Cryptococcus neoformans growth inhibition, dose response, Alamar Blue, cherry-picks (AID 686998)

SMILES	IC50
COc1ccc(CN(C)C[C@@H]2Oc3ccc(NC(=O)C4CC4)cc3C(=O)N([C@@H](C)CO)C[C@H]2C)cc1	43.2 µM
CC(C)COc1ccc(CNC(=S)NCc2ccccc2)cc1	5.43 µM
COC(=O)C1=C(C)N(Cc2ccccc2)C(=S)N[C@H]1c1cccc(F)c1	13.7 µM
Cc1c(Cl)cccc1NC(=S)NCCc1ccc(Cl)cc1	5.38 µM
S=C(NCCCc1ccccc1)Nc1ccccc1	8.77 µM
COC(=O)C1=C(C)N(Cc2ccc(Br)cc2)C(=S)NC1c1cccc(Cl)c1 (stereo unspecified)	5.98 µM
O=C(COc1ccc2c(c1)CCC2)NCc1ccc(Cl)cc1	34.2 µM
CCc1ccc(C(=O)NC(=S)Nc2ccccc2N2CCOCC2)cc1	9.06 µM
C/C=C/c1ccc([C@@H]2[C@@H](C#N)N(S(=O)(=O)c3cccc(F)c3)[C@@H]2CO)cc1	33.6 µM
Cc1ccc(OCCn2c(=S)[nH]c3ccccc32)c(C(C)C)c1	0.913 µM
CO[C@@H]1CN(C)C(=O)c2ccc(NS(=O)(=O)c3ccc(Oc4ccccc4)cc3)cc2OC[C@H](C)NC[C@H]1C	3.78 µM
CCc1nc(N2CCCCC2C)c2oc3ccccc3c2n1 (stereo unspecified)	17.6 µM
Fc1ccc(CNC(=S)NCc2cccc(Cl)c2)cc1	12.3 µM
CC(=O)N[C@H]1CC[C@@H](CCNC(=O)C2CCC2)O[C@H]1CO	50.2 µM
CC(C)NC(=O)Nc1ccc2c(c1)CC(=O)N([C@H](C)CO)C[C@H](C)[C@@H](CN(C)C(=O)Nc1ccc3c(c1)OCO3)O2	> 70 µM (inactive)
Cc1ccc(C2CCN(C(=S)NC3CCCCC3)C2)cc1 (stereo unspecified)	9.63 µM
Cc1ccccc1S(=O)(=O)N[C@@H]1CC[C@H](CCNS(=O)(=O)c2cccc(F)c2)O[C@H]1CO	> 70 µM (inactive)
COC(=O)C1=C(C)N(Cc2ccc(Br)cc2)C(=S)NC1c1ccc(F)cc1 (stereo unspecified)	5.35 µM
O=C(NC(=S)NCC1COc2ccccc2O1)c1ccccc1 (stereo unspecified)	11 µM
O=C(NC(=S)Nc1ccccc1N1CCOCC1)c1ccccc1F	20.9 µM
CC(=O)N1[C@H](CO)[C@H](c2ccc(-c3ccccc3)cc2)[C@@H]1CNC(=O)C1CC1	4.92 µM
